For assay [1], the system named is mutated miR-193a-3p (miR-193a-mut) (RNA, miRNA) AACUUCCUACAAAGUCCCAGU
As to the kind of experiment: ITC. As to conditions: 190 mM NaCl; 20 mM HEPES pH 7.2, 1 mM EDTA, BSA, Tween-20; 200 µM Trp titrant.

The test system of assay [2] is miR-193a-3p (RNA, miRNA) AACUGGCCUACAAAGUCCCAGU
Description: ITC. To be noted: 190 mM NaCl; 20 mM HEPES pH 7.2, 1 mM EDTA, 37.5 µg/ml BSA, 0.02% Tween-20; apparent.

Assay [3] deals with mutated miR-193a-3p (miR-193a-mut) (RNA, miRNA) AACUUCCUACAAAGUCCCAGU
As to the kind of experiment: CD spectra. To be noted: 190 mM NaCl; 20 mM HEPES pH 7.2, 1 mM EDTA, BSA, Tween-20; 200 µM Trp.

In assay [4] the test system is biotinylated miR-193a-3p (RNA, miRNA) AACUGGCCUACAAAGUCCCAGU
As to the kind of experiment: SPR (OpenSPR). As to conditions: 190 mM NaCl; 10 mM HEPES, 1 mM EDTA, 0.02% Tween-20; Trp 2, 20, 200 µM.

Assay [5] relates to miR-193a-5p (RNA, miRNA) UGGGUCUUUGCGGGCAAGAUGA
As to the kind of experiment: CD spectra. To be noted: 190 mM NaCl; 20 mM HEPES pH 7.2, 1 mM EDTA, BSA, Tween-20; 200 µM Trp.

Assay [6] deals with miR-193a-3p (RNA, miRNA) AACUGGCCUACAAAGUCCCAGU
Description: CD spectra. To be noted: 190 mM NaCl; 20 mM HEPES pH 7.2, 1 mM EDTA, BSA, Tween-20; 100 nM RNA, 200 µM Trp.

SMILES strings stand for the structures.

These results are taken from paper PMC11336974 (2024).

For the compound `N[C@@H](Cc1c[nH]c2ccccc12)C(=O)O`, the binding result is on record as “no” in assay [1]; “no” in assay [3]; “yes” in assay [4]; “no” in assay [5]; “yes” in assay [6]. In addition, in assay [2], the Kd worked out at 5.3 µM.
